Source: patent US20260209214A1, “LSD1 MODULATORS” (RECURSION PHARMACEUTICALS, INC., priority 2022, published 2026)

target: Recombinant human LSD1 (Homo sapiens, UniProt O60341); experiment: LSD1 inhibition assay (HTRF LSD1 Histone H3K4 mono-demethylation assay, me1->me0); type: biochemical; conditions: 20 nM recombinant human LSD1, 95 nM H3K4(me1) biotinylated peptide, 15 min preincubation, 60 min at 25° C., read-out: LSD1 inhibition IC50 (nM range)
How it was run: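 Recombinant human LSD1 (20 nM) pre-incubated 15 min with 10 semi-log compound doses, then 95 nM biotinylated H3K4me1 peptide for 60 min at 25 °C in pH 8.5 Tris/NaCl buffer with 10 μM FAD, 1 mM DTT. HTRF me0-antibody read after 90 min; IC50 from 4-parameter fit.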

Row | Compound | IC50
1 | N#Cc1ccc(-c2cccc(OC3CC4CNC3C4)c2-c2ccns2)cc1F (centres unmarked) [Example 112, 3′-{2-azabicyclo[2.2.1]heptan-6-yloxy}-3-fluoro-2′-(1,2-thiazol-5-yl)-[1,1′-biphenyl]-4-carbonitrile] | 10 to 25 nM
2 | Cc1sncc1-c1c(CC2CNCCO2)cccc1-c1ccc(C#N)c(F)c1 [Example 113, (2R,3R)-2,3-dihydroxybutanedioic acid; 2-fluoro-4-[2-(5-methylisothiazol-4-yl)-3-(morpholin-2-ylmethyl)phenyl]benzonitrile] | 100 to 1000 nM
3 | N#Cc1ccc(-c2cccc(N3CCC(N)CC3)c2-c2cncs2)cc1F [Example 115, 3'-(4-aminopiperidin-1-yl)-3-fluoro-2'-(1,3-thiazol-5-yl)-[1,1'-biphenyl]-4-carbonitrile] | 10 to 25 nM
4 | CNC1CCN(c2cccc(-c3ccc(C#N)c(F)c3)c2-c2cncs2)CC1 [Example 116, 3-fluoro-3'-[4-(methylamino)piperidin-1-yl]-2'-(1,3-thiazol-5-yl)-[1,1'-biphenyl]-4-carbonitrile] | 10 to 25 nM
5 | N#Cc1ccc(-c2cc(CC3CNCCO3)ccc2NCc2cnn3c2CCCC3)cc1F (centres unmarked) [Example 117, 3-fluoro-5′-[(morpholin-2-yl)methyl]-2′-[{{4H,5H,6H,7H-pyrazolo[1,5-a]pyridin-3-yl}methyl)amino]-[1,1′-biphenyl]-4-carbonitrile] | > 1000 nM
6 | N#Cc1ccc(-c2cc(CC3CNCCO3)ccc2N2CCCC3(CCOC3)C2)cc1F (centres unmarked) [Example 118, 3-fluoro-5′-[(morpholin-2-yl)methyl]-2′-{2-oxa-7-azaspiro[4.5]decan-7-yl}-[1,1′-biphenyl]-4-carbonitrile] | 100 to 1000 nM
7 | Cc1cc(Oc2ccc(CC3CNCCO3)cc2-c2ccc(C#N)c(F)c2)ccn1 (centres unmarked) [Example 121, 3-fluoro-2′-[(2-methylpyridin-4-yl)oxy]-5′-[(morpholin-2-yl)methyl]-[1,1′-biphenyl]-4-carbonitrile] | 100 to 1000 nM
8 | CNC1CCN(c2cccc(-c3ccc(C#N)c(F)c3)c2C2CC2)CC1 [Example 125, 2'-cyclopropyl-3-fluoro-3'-[4-(methylamino)piperidin-1-yl]-[1,1'-biphenyl]-4-carbonitrile] | 100 to 1000 nM
9 | COCC1(O)CCN(c2ccc(CC3CNCCO3)cc2-c2ccc(C#N)c(F)c2)CC1 (centres unmarked) [Example 126, COCC1(O)CCN(CC1)c2ccc(CC3CNCCO3)cc2c4ccc(C#N)c(F)c4] | 100 to 1000 nM
10 | N#Cc1ccc(-c2cccc(CC3CNCCO3)c2-c2cnccn2)cc1F (centres unmarked) [Example 128, 3-fluoro-3′-[(morpholin-2-yl)methyl]-2′-(pyrazin-2-yl)-[1,1′-biphenyl]-4-carbonitrile] | 25 to 100 nM
11 | COCc1ncc(-c2ccc(CC3CNCCO3)cc2-c2ccc(C#N)c(F)c2)o1 (centres unmarked) [Example 130, 3-fluoro-2′-[2-(methoxymethyl)-1,3-oxazol-5-yl]-5′-[(morpholin-2-yl)methyl]-[1,1′-biphenyl]-4-carbonitrile] | > 1000 nM
12 | N#Cc1ccc(-c2cc(C[C@@H]3CN4CCC[C@H]4CO3)ccc2N2CCC2)cc1F [Example 131, 5′-{[(3R,8aS)-hexahydro-1H-pyrrolo[2,1-c][1,4]oxazin-3-yl]methyl}-2′-(azetidin-1-yl)-3-fluoro-[1,1′-biphenyl]-4-carbonitrile] | > 1000 nM
13 | N#Cc1ccc(-c2cc(CC3CNC4(CC4)CO3)ccc2N2CCC2)cc1F (centres unmarked) [Example 135, 2′-(azetidin-1-yl)-3-fluoro-5′-({7-oxa-4-azaspiro[2.5]octan-6-yl}methyl)-[1,1′-biphenyl]-4-carbonitrile] | > 1000 nM
14 | CC(C)(c1ccc(N2CCC2)c(-c2ccc(C#N)c(F)c2)c1)C1CNCCO1 (centres unmarked) [Example 136, 2′-(azetidin-1-yl)-3-fluoro-5′-[2-(morpholin-2-yl)propan-2-yl]-[1,1′-biphenyl]-4-carbonitrile] | > 1000 nM
15 | CC1(C)CNCC(Cc2ccc(N3CCC3)c(-c3ccc(C#N)c(F)c3)c2)O1 (centres unmarked) [Example 139, 2'-(azetidin-1-yl)-5'-[(6,6-dimethylmorpholin-2-yl)methyl]-3-fluoro-[1,1'-biphenyl]-4-carbonitrile] | 100 to 1000 nM
16 | CC(c1ccc(N2CCC2)c(-c2ccc(C#N)c(F)c2)c1)C1CNCCO1 (centres unmarked) [Example 144, 2′-(azetidin-1-yl)-3-fluoro-5′-[1-(morpholin-2-yl)ethyl]-[1,1′-biphenyl]-4-carbonitrile] | > 1000 nM
17 | CN1CCOC(Cc2ccc(N3CCC3)c(-c3ccc(C#N)c(F)c3)c2)C1 (centres unmarked) [Example 146, 2′-(azetidin-1-yl)-3-fluoro-5′-[(4-methylmorpholin-2-yl)methyl]-[1,1′-biphenyl]-4-carbonitrile] | > 1000 nM
18 | N#Cc1ccc(-c2cccc(CC3CNCCO3)c2-c2ccncc2)cc1F (centres unmarked) [Example 148, 3-fluoro-3′-[(morpholin-2-yl)methyl]-2′-(pyridin-4-yl)-[1,1′-biphenyl]-4-carbonitile] | 100 to 1000 nM

Further lines, results first:

Row | IC50 | Compound
19 | 100 to 1000 nM | N#Cc1ccc(-c2cc(CC3CNCCO3)ccc2N2CCC3(CCOC3)C2)cc1F (centres unmarked) [Example 119, 3-fluoro-5′-[(morpholin-2-yl)methyl]-2′-{2-oxa-7-azaspiro[4.4]nonan-7-yl}-[1,1′-biphenyl]-4-carbonitrile]
20 | 100 to 1000 nM | CN(C[C@H]1CCCOC1)c1ccc(CC2CNCCO2)cc1-c1ccc(C#N)c(F)c1 (stereo partly drawn) [Example 120, 3-fluoro-2′-[methyl({[(3R)-oxan-3-yl]methyl})amino]-5′-[(morpholin-2-yl)methyl]-[1,1′-biphenyl]-4-carbonitrile]
21 | 100 to 1000 nM | CC(C)C1(O)CN(c2ccc(CC3CNCCO3)cc2-c2ccc(C#N)c(F)c2)C1 (centres unmarked) [Example 122, 3-fluoro-2′-[3-hydroxy-3-(propan-2-yl)azetidin-1-yl]-5′-[(morpholin-2-yl)methyl]-[1,1′-biphenyl]-4-carbonitrile]
22 | > 1000 nM | N#Cc1ccc(-c2cc(CC3CNCCO3)ccc2N[C@H]2CCCOC2)cc1F (stereo partly drawn) [Example 123, 3-fluoro-5′-[(morpholin-2-yl)methyl]-2′-{[(3S)-oxan-3-yl]amino}-[1,1′-biphenyl]-4-carbonitrile]
23 | 100 to 1000 nM | Cc1ccncc1-c1ccc(CC2CNCCO2)cc1-c1ccc(C#N)c(F)c1 (centres unmarked) [Example 124, 3-fluoro-2′-(4-methylpyridin-3-yl)-5′-[(morpholin-2-yl)methyl]-[1,1′-biphenyl]-4-carbonitrile]
24 | 100 to 1000 nM | N#Cc1ccc(-c2cc(CC3CNCCO3)ccc2N2CC3(CCOC3)C2)cc1F (centres unmarked) [Example 127]
25 | 100 to 1000 nM | COCc1cc(-c2ccc(CC3CNCCO3)cc2-c2ccc(C#N)c(F)c2)on1 (centres unmarked) [Example 129, 3-fluoro-2′-[3-(methoxymethyl)-1,2-oxazol-5-yl]-5′-[(morpholin-2-yl)methyl]-[1,1′-biphenyl]-4-carbonitrile]
26 | > 1000 nM | COc1cnc(-c2ccc(CC3CNCCO3)cc2-c2ccc(C#N)c(F)c2)cn1 (centres unmarked) [Example 132, 3-fluoro-2′-(5-methoxypyrazin-2-yl)-5′-[(morpholin-2-yl)methyl]-[1,1′-biphenyl]-4-carbonitrile]
27 | 100 to 1000 nM | COc1ccc(-c2ccc(CC3CNCCO3)cc2-c2ccc(C#N)c(F)c2)nc1 (centres unmarked) [Example 133, 3-fluoro-2′-(5-methoxypyridin-2-yl)-5′-[(morpholin-2-yl)methyl]-[1,1′-biphenyl]-4-carbonitrile]
28 | > 1000 nM | N#Cc1ccc(-c2cc(CC3CNCCO3)ccc2N2CCC2)cc1Cl (centres unmarked) [Example 134, 4-[2-(azetidin-1-yl)-5-(morpholin-2-ylmethyl)phenyl]-2-chloro-benzonitrile]
29 | 100 to 1000 nM | N#Cc1ccc(-c2cc(CC3CNCCO3)ccc2N2CC(CO)C2)cc1F (centres unmarked) [Example 137, 3-fluoro-2′-[3-(hydroxymethyl)azetidin-1-yl]-5′-[(morpholin-2-yl)methyl]-[1,1′-biphenyl]-4-carbonitrile]
30 | 25 to 100 nM | CC1(O)CCN(c2ccc(CC3CNCCO3)cc2-c2ccc(C#N)c(F)c2)CC1 (centres unmarked) [Example 138, 3-fluoro-2′-(4-hydroxy-4-methylpiperidin-1-yl)-5′-[(morpholin-2-yl)methyl]-[1,1′-biphenyl]-4-carbonitrile]
31 | > 1000 nM | COC1CN(c2ccc(CC3CNCCO3)cc2-c2ccc(C#N)c(F)c2)C1 (centres unmarked) [Example 140, 3-fluoro-2′-(3-methoxyazetidin-1-yl)-5′-[(morpholin-2-yl)methyl]-[1,1′-biphenyl]-4-carbonitrile]
32 | 100 to 1000 nM | N#Cc1ccc(-c2cc(CC3CNCCO3)ccc2C2CC2)cc1F (centres unmarked) [Example 141, 2′-cyclopropyl-3-fluoro-5′-[(morpholin-2-yl)methyl]-[1,1′-biphenyl]-4-carbonitrile]
33 | > 1000 nM | COc1ccc(CC2CNCCO2)cc1-c1ccc(C#N)c(F)c1 (centres unmarked) [Example 142, 3-fluoro-2′-methoxy-5′-[(morpholin-2-yl)methyl]-[1,1′-biphenyl]-4-carbonitrile]
34 | 100 to 1000 nM | N#Cc1ccc(-c2cc(CC3CNCCO3)ccc2N2CCCOCC2)cc1F (centres unmarked) [Example 143, 3-fluoro-5'-[(morpholin-2-yl)methyl]-2'-(1,4-oxazepan-4-yl)-[1,1'-biphenyl]-4-carbonitrile]
35 | > 1000 nM | N#Cc1ccc(-c2cc(CC3CNCCO3)ccc2C2CCCO2)cc1F (centres unmarked) [Example 145, 3-fluoro-5′-[(morpholin-2-yl)methyl]-2′-(oxolan-2-yl)-[1,1′-biphenyl]-4-carbonitrile]
36 | 100 to 1000 nM | N#Cc1ccc(-c2cc(CC3CNCCO3)ccc2N2CCCC2)cc1F (centres unmarked) [Example 147, 3-fluoro-5′-[(morpholin-2-yl)methyl]-2′-(pyrrolidin-1-yl)-[1,1′-biphenyl]-4-carbonitrile]
37 | 100 to 1000 nM | CC(C)(C)N1CCN(c2ccc(CC3CNCCO3)cc2-c2ccc(C#N)c(F)c2)CC1 (centres unmarked) [Example 149, 2′-(4-tert-butylpiperazin-1-yl)-3-fluoro-5′-[(morpholin-2-yl)methyl]-[1,1′-biphenyl]-4-carbonitrile]
38 | > 1000 nM | N#Cc1ccc(-c2cc(CC3CNCCO3)ccc2C2COC2)cc1F (centres unmarked) [Example 150, 3-fluoro-5'-[(morpholin-2-yl)methyl]-2'-(oxetan-3-yl)-[1,1'-biphenyl]-4-carbonitrile]
